The values below come from patent US9453016B2, “Terpenoid spiro ketal compounds with LXR agonists activity, their use and formulations with them” (priority 2010, dated 2016).

One test deals with LXRα (Homo sapiens, UniProt Q13133). The experiment in a line: LXR HTR-FRET coactivator (b-SRC1) recruitment assay, LXRα. The test is classed as biochemical. The conditions noted are these: FRET 12-point dose response, GST-LXR LBD. The text has this:
(§1) The LXR assay is configured using time-resolved fluorescence resonance energy transfer technology (HTR-FRET) (see Albers et al., J. Biol. Chem. 2006 24; 281(8) 4920-30; Chin J, Assay Drug Dev. Technol. 2003 1(6):777-87).
(§2) In the presence of an agonist, a fusion protein of glutathione S-transferase (GST) and LXR ligand binding domain (GST-LXR LBD) associates with a biotin-labeled nuclear receptor coactivator (b-SRC1). A fluorescent signal is detected in the presence of Eu-labeled anti GST antibodies and streptavidin-labeled allophycocyanin (APC). FRET is made possible by agonist-dependent close interaction of the test proteins.
(§3) Compounds which act as agonists at the LXR ligand binding domain were detected by an increase in time-resolved fluorescence. This LXR-FRET was performed as described by Albers et al. (loc. cit.).
(§4) FRET-active compounds were assayed in a FRET 12-point dose response experiment to determine the EC50—values of the compounds mentioned in the following Table 5.

Another test concerns the target LXRβ (Homo sapiens, UniProt P55055). The experiment in a line: LXR HTR-FRET coactivator (b-SRC1) recruitment assay, LXRβ. The note with it: FRET 12-point dose response, GST-LXR LBD. It is filed as biochemical.
Excerpt: as §1, §2, §3, §4

A further test concerns lung cancer cells. The note with it: cited from earlier work.
The subject of test [1] is female APOE*3-Leiden(E3L).CETP transgenic mice. The experiment in a line: Plasma lipids in APOE*3Leiden.CETP transgenic mice on Western-type diet. The test is classed as in vivo. The note with it: for Plasma cholesterol: mean ± SD of 10 mice. The text has this: The aim of the study was to evaluate the effects of extract IMD-XT0022 (see example 1c) on plasma lipids in female APOE*3-Leiden(E3L).CETP transgenic mice (hereinafter referred to as APOE*3Leiden mice). The effects were compared with phytosterol as a positive control.
Forty female APOE*3Leiden mice (from the specific pathogen free breeding stock at TNO-Metabolic Health Research, Leiden, Netherlands), 15-16 weeks of age at the start of the experiment were housed during the experiment in Macrolon® cages (maximally 5 animals per cage) in clean-conventional animal rooms (relative humidity 50-60%, temperature about 21° C., light cycle 7 am to 7 pm). Individual mice were marked by ear-punch holes and supplied with food and acidified tap water ad libitum. Dietary ingredients were provided by Hope Farms (Woerden, the Netherlands): The mice received a semi-synthetic modified Western-type diet (WTD) as described by Nishina et al., J. Lipid. Res. 1990:31:859, containing cholesterol (0.1% w/w, final concentration) and saturated fat (15% w/w cacao butter). The animals were put on a Western-type diet with 0.1% cholesterol for 4 weeks (run-in period). After the run-in period, APOE*3Leiden mice were sub-divided into three groups of 10 mice each and treated during 5 weeks with the following compounds: Control group (vehicle gavage, Western-type diet without diet additions), extract group (Western-type diet without diet additions, 100 mg/kg/d extract IMD-XT0022 via daily gavage) or phytosterol group (vehicle gavage, Western-type diet with addition of 1 wt. % of free phytosterol). One week before first administration of IMD-XT0022 mice were gavaged with vehicle to get used to the procedure. Food intake and body weight were measured weekly during the treatment period (t=0, 1, 2, 3, 4 and 5 weeks). After two and five weeks of treatment blood samples were taken after a 4 hour fasting period. After 3 weeks of treatment vehicle Delios V oil (a medium-chain triglyceride oil obtained from BASF Personal Care and Nutrition GmbH, Düsseldorf, Germany) was replaced by Polyethylengycol-400 (PEG-400, Sigma-Aldrich, Steinheim, Germany) for all groups.
Extract IMD-XT0022 was administered daily by oral gavage between 8.00 and 11.00 am CET. In the phytosterol group phytosterol was administered orally as admix to the WTD (1% w/w free phytosterol). The control group and the phytosterol group received the vehicle accordingly. The gavage volume during the treatment period was 10 ml/kg and was adjusted weekly based on the measured body weight of the respective week.
Plasma cholesterol, triglycerides and HDL cholesterol were measured individually at t=0, 2 and 5 weeks. On group level ALT, AST levels and lipoprotein profiles (at t=0 and 5 weeks) were measured. Feces were collected (per cage) during week 5.
On the mornings of the blood sampling time points of t=weeks 2 and t=5 weeks, gavages were not performed between 8.00-11.00 am, but were performed after the blood sampling. At t=5 weeks, 3 days after the last blood sampling, mice were sacrificed after a 4 hour fasting period (and without giving a gavage on the day of sacrifice) by CO2 suffocation. EDTA-plasma was collected via heart puncture and stored at <−70° C. and several organs were collected.
After a 4 weeks run-in period, 10 low-responder mice were removed from the study. The remaining 30 mice where subdivided into 3 groups of 10 mice each, matched for body weight, plasma cholesterol, triglycerides, HDL-cholesterol and age (t=0) […]

For test [2] the test system is unchanged. The experiment in a line: Pooled lipoprotein profiles (FPLC) in APOE*3Leiden.CETP mice. It is filed as in vivo. The conditions noted are these: after 5 weeks of treatment, pooled plasma per group.
The test system of the next test is liver cancer cell lines. The conditions noted are these: cited from earlier work.

Sequence of LXRβ (P55055 222-460 limits assumed): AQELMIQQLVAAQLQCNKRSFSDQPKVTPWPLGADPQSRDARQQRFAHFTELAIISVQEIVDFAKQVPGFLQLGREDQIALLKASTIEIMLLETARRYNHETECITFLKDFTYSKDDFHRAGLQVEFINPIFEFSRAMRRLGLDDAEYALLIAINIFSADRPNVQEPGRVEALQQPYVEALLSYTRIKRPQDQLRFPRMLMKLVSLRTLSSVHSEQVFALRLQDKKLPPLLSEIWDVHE
Sequence of LXRβ (Q15788 whole entry partner, the tested form may be a part): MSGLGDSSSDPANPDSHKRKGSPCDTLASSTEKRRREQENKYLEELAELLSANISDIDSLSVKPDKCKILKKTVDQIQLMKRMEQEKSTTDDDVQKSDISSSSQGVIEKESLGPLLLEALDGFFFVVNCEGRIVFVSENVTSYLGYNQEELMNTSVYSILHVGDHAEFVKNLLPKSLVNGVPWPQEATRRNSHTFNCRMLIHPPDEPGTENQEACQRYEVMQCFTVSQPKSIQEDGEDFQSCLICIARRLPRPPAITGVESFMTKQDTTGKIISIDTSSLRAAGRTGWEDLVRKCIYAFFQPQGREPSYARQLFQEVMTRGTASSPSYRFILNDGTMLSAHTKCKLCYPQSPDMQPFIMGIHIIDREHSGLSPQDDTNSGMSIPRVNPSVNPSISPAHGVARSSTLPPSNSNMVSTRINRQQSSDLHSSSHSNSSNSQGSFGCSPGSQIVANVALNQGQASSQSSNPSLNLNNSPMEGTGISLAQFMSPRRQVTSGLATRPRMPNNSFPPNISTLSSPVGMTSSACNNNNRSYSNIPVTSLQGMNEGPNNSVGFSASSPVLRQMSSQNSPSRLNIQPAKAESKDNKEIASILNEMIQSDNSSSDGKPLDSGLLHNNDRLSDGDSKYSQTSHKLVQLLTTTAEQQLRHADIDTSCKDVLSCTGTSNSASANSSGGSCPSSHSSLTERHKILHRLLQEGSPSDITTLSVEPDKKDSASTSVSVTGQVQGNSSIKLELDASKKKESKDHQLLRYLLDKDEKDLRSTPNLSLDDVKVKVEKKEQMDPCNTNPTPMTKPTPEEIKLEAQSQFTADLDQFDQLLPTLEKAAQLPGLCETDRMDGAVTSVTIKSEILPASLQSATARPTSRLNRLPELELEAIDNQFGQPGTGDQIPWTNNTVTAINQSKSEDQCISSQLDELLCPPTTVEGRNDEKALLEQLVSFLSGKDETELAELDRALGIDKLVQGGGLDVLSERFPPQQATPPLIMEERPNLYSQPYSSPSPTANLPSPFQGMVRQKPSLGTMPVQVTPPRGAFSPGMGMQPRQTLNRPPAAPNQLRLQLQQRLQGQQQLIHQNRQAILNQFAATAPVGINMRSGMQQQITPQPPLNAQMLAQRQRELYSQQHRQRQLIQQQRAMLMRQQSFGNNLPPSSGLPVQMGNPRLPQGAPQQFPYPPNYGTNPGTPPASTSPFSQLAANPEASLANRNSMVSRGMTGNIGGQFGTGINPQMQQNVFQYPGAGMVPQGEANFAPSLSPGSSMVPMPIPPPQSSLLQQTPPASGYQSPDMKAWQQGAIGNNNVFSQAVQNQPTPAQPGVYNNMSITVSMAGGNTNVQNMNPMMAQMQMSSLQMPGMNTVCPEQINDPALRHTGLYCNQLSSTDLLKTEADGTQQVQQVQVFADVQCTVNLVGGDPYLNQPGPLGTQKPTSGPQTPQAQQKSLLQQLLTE
Sequence of LXRα (Q13133 209-447 limits assumed): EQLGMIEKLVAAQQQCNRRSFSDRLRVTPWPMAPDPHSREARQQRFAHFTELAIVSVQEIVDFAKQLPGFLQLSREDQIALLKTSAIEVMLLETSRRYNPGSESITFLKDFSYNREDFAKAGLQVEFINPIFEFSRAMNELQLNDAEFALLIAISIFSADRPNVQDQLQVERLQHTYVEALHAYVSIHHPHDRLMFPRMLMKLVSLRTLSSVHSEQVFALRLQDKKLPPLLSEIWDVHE
Sequence of LXRα (Q15788 whole entry partner, the tested form may be a part): as the sequence (Q15788 whole entry partner, the tested form may be a part) above

The EC50 is the concentration at which the effect is half-maximal. `C[C@H]1[C@@H](O)[C@@]2(OC1(C)C)O[C@]13CC[C@H]([C@@H]2C)[C@@]1(C)[C@H](O)C=C1C3=CC(=O)C2=CC(=O)CC[C@@]21C` [Compound 9, (1R,2S,2′S,3′R,4aS,4′S,10aR,12R,12aS)-3′,12-dihydroxy-2,4′,5′,5′,10a,12a-hexamethyl-4′,5′,10,10a,12,12a-hexahydro-1H,3′H-spiro[1,4a-ethanonaphtho[1,2-h]chromene-3,2′-furan]-6,8(2H,9H)-dione]: the EC50 amounted to 1 µM at LXRα and 4.6 µM on LXRβ.

In the case of `Cc1c(O)ccc2c1C=C[C@]1(C)[C@@H]3CC[C@]21O[C@@]1(OC(C)(C)[C@@H](C)[C@H]1O)[C@H]3C` [Compound 2, (2S,3S,3′R,4R,4′S,4aR,10bR)-4,4′,4a,5′-tetrahydro-3,4′,4a,5′,5′,7-hexamethyl-spiro[4,10b-ethano-10bH-naphtho[1,2-b]pyran-2(3H),2′(3′H)-furan]-3′,8-diol], the values for the EC50 on LXRα and at LXRβ were 1.1 µM and 5.5 µM, respectively.

Take `CO[C@@H]1C=C2C3CC[C@H](C(C)/C=C/C(C)C(C)C)[C@@]3(C)CC[C@@H]2[C@@]2(C)CC[C@H](O)C[C@]12O` (stereo partly drawn) [blazein]: the “Apoptosis in lung cancer cells” value in the test with lung cancer cells is listed as “induced apoptosis”.

phytosterol: in test [1] (after 5 weeks of treatment), the “Decrease of plasma cholesterol as compared to the control group” value came out at 16% and the “Decrease of plasma triglycerides as compared to the control group” value is 36%. Moreover, the “Plasma HDL, effect as compared to the control group” value in test [1] (mouse, in vivo) is recorded as “not affected”. This molecule showed a Plasma cholesterol in test [1] (t = 0 weeks (after run-in, before treatment)) of 10.9 ± 1.6 mM. The molecule further came in with a Plasma cholesterol in test [1] (t = 2 weeks of treatment, extract 100 mg/kg/d gavage, phytosterol 1 wt.% in diet) of 9.4 ± 1.3 mM. This molecule also returned a Plasma cholesterol in test [1] (t = 5 weeks of treatment, extract 100 mg/kg/d gavage, phytosterol 1 wt.% in diet) of 8.1 ± 1.8 mM. In test [2], the “Decrease in the area under the curve of the VLDL peak, cholesterol” value was 25% and the “Decrease in the area under the curve of the VLDL peak, phospholipid” value is on record as 21%.

Consider `C[C@H]1[C@@H](O)[C@]2(OC1(C)C)O[C@]13CC[C@H]([C@@H]2C)[C@@]1(C)CC=C1C3=CC(=O)C2=CC(=O)CC[C@@]21C` [Compound 5, (14β,22S,23R)-14,22:22,25-Diepoxy-23-hydroxy-ergosta-4,7,9-triene-3,6-dione], for which the figures for the EC50 at LXRα and on LXRβ were 7.6 µM and 24 µM, respectively.

Take `COc1ccc2c(c1CO)C=C[C@]1(C)[C@@H]3CC[C@]21O[C@@]1(OC(C)(C)[C@@H](C)[C@H]1O)[C@H]3C` [Compound 3, (2S,3S,3′R,4R,4′S,4aR,10bR)-4,4′,4a,5′-Tetrahydro-3′-hydroxy-8-methoxy-3,4′,4a,5′,5′-pentamethyl-spiro[4,10b-ethano-10bH-naphtho[1,2-b]pyran-2(3H),2′(3′H)-furan]-7-methanol]: the EC50 at LXRα amounted to 11 µM; on LXRβ it was 24 µM.

Turning to `COc1ccc2c(c1C)C=C[C@@]1(C)[C@]23CC[C@]1(O)[C@H](C)[C@]1(OC(C)(C)[C@@H](C)[C@H]1O)O3` [Compound 7, (2S,3S,3′R,4R,4′S,4aR,10bR)-4,4′,4a,5′-Tetrahydro-17-hydroxy-8-methoxy-3,4′,4a,5′,5′,7-hexamethyl-spiro[4,10b-ethano-10bH-naphtho[1,2-b]pyran-2(3H),2′(3′H)-furan]-3′-ol], the EC50 at LXRα amounted to 31 µM; on LXRβ it was 34 µM.

With `COc1ccc2c(c1C)CC[C@]1(C)[C@@H]3CC[C@]21O[C@@]1(OC(C)(C)[C@@H](C)[C@H]1O)[C@H]3C` [Compound 14, (2S,3S,3′R,4R,4aR,4′S,10bR)-8-methoxy-3,4a,4′,5′,5′,7-hexamethyl-4,4a,4′,5,5′,6-hexahydro-3H,3′H-spiro[4,10b-ethanobenzo[h]chromene-2,2′-furan]-3′-ol], the “Biological activities against liver cancer cell lines” value with liver cancer cell lines is recorded as “confirmed the biological activities”.

On to `COc1ccc2c(c1C)CC(=O)[C@]1(C)[C@@H]3CC[C@]21O[C@@]1(OC(C)(C)[C@@H](C)[C@H]1O)[C@H]3C` [Compound 8, (2S,3S,3′R,4R,4aR,4′S,10bS)-3′-hydroxy-8-methoxy-3,4a,4′,5′,5′,7-hexamethyl-4,4a,4′,5′-tetrahydro-3H,3′H-spiro[4,10b-ethanobenzo[h]chromene-2,2′-furan]-5(6H)-one], for which the 50% effective concentration (EC50) was determined as 24 µM at LXRα and 31 µM on LXRβ.

In the case of `C[C@H]1[C@H](O)[C@@]2(OC1(C)C)O[C@]13CC[C@H]([C@@H]2C)[C@@]1(C)C=CC1=C3C=CC2=CC(=O)CC[C@@]21C` [Compound 6, (14β,22S,23S)-14,22:22,25-Diepoxy-23-hydroxy-ergosta-4,6,8,11-tetraen-3-one], the concentration giving a half-maximal response (EC50) at LXRα came out at 5.5 µM; at LXRβ it was 14 µM.

Regarding `COc1ccc2c(c1C)C=C[C@]1(C)[C@@H]3CC[C@]21O[C@@]1(OC(C)(C)[C@@H](C)[C@H]1O)[C@H]3C` [Compound 1, (2S,3S,3′R,4R,4′S,4aR,10bR)-4,4′,4a,5′-Tetrahydro-8-methoxy-3,4′,4a,5′,5′,7-hexamethyl-spiro[4,10b-ethano-10bH-naphtho[1,2-b]pyran-2(3H),2′(3′H)-furan]-3′-ol], the EC50 at LXRα stood at 1.4 µM; on LXRβ, 25 µM. Also, the “Biological activities against liver cancer cell lines” value with liver cancer cell lines is given as “confirmed the biological activities”.
